Assay results taken from the supplement of paper PMC10307832.

Tests used:
Assay in all cases: relative viability (nuclei count vs DMSO), 5 days (fraction); higher = more cells survive
Staurosporine + Olaparib = compound: CN[C@@H]1C[C@H]2O[C@@](C)([C@@H]1OC)n1c3ccccc3c3c4c(c5c6ccccc6n2c5c31)C(=O)NC4 [Staurosporine] + O=C(c1cc(Cc2n[nH]c(=O)c3ccccc23)ccc1F)N1CCN(C(=O)C2CC2)CC1 [Olaparib] (partner 8 µM)
Summary of the method: (§1)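 Values are medians from duplicate plates. Each reflects relative viability, defined as the nuclei count of treated wells over that of vehicle wells. Lung cancer cell lines in 1536-well plates were pin-tool dosed one day after seeding with one drug alone or with a fixed anchor-drug dose plus five library-drug doses (not always all listed) in √10 steps, then fixed, stained and imaged at 4× after 5 days.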

Staurosporine + OSI-027 = compound: CN[C@@H]1C[C@H]2O[C@@](C)([C@@H]1OC)n1c3ccccc3c3c4c(c5c6ccccc6n2c5c31)C(=O)NC4 [Staurosporine] + COc1cccc2cc(-c3nc([C@H]4CC[C@H](C(=O)O)CC4)n4ncnc(N)c34)[nH]c12 [OSI-027] (partner 0.5 µM)
Summary of the method: as §1

[1] = compound: O=c1[nH]cc(F)c(=O)[nH]1 [5-Fluorouracil] + O=C(c1cc(Cc2n[nH]c(=O)c3ccccc23)ccc1F)N1CCN(C(=O)C2CC2)CC1 [Olaparib] (partner 8 µM)
Summary of the method: as §1

[2] = compound: O=c1[nH]cc(F)c(=O)[nH]1 [5-Fluorouracil] + CS(=O)(=O)N1CCN(Cc2cc3nc(-c4cccc5[nH]ncc45)nc(N4CCOCC4)c3s2)CC1 [Pictilisib] (partner 1 µM)
Summary of the method: as §1

For LCLC-103H, the relative viability (Staurosporine + Olaparib; first compound 0.005 µM) was 0.851, the relative viability (Staurosporine + Olaparib; first compound 0.01581 µM) was 0.477 and the relative viability (Staurosporine + Olaparib; first compound 0.05 µM) was 0.403. The relative viability (Staurosporine + Olaparib; first compound 0.1581 µM) was 0.247, the relative viability (Staurosporine + OSI-027; first compound 0.005 µM) was 0.531 and the relative viability (Staurosporine + OSI-027; first compound 0.01581 µM) was 0.219. It also gave a relative viability (Staurosporine + OSI-027; first compound 0.05 µM) of 0.168, a relative viability (Staurosporine + OSI-027; first compound 0.1581 µM) of 0.194 and a relative viability (Staurosporine + OSI-027; first compound 0.5 µM) of 0.153. For the same cell line, the relative viability ([1]; first compound 0.02 µM) was 0.801, the relative viability ([1]; first compound 0.2 µM) was 0.741 and the relative viability ([1]; first compound 0.6325 µM) was 0.559. For the same cell line, the relative viability ([1]; first compound 2 µM) was 0.46, the relative viability ([2]; first compound 0.02 µM) was 0.61 and the relative viability ([2]; first compound 0.2 µM) was 0.598. It also gave a relative viability ([2]; first compound 0.6325 µM) of 0.536 and a relative viability ([2]; first compound 2 µM) of 0.447.

Work on NCI-H596 yielded a relative viability (Staurosporine + Olaparib; first compound 0.005 µM) of 0.854, a relative viability (Staurosporine + Olaparib; first compound 0.01581 µM) of 0.542 and a relative viability (Staurosporine + Olaparib; first compound 0.05 µM) of 0.302. For the same cell line, the relative viability (Staurosporine + Olaparib; first compound 0.1581 µM) was 0.25, the relative viability (Staurosporine + Olaparib; first compound 0.5 µM) was 0.297 and the relative viability (Staurosporine + OSI-027; first compound 0.005 µM) was 0.798. The relative viability (Staurosporine + OSI-027; first compound 0.01581 µM) was 0.285, the relative viability (Staurosporine + OSI-027; first compound 0.05 µM) was 0.439 and the relative viability (Staurosporine + OSI-027; first compound 0.1581 µM) was 0.179. The relative viability (Staurosporine + OSI-027; first compound 0.5 µM) was 0.135, the relative viability ([1]; first compound 0.02 µM) was 0.66 and the relative viability ([1]; first compound 0.2 µM) was 0.694. It also gave a relative viability ([1]; first compound 0.6325 µM) of 0.57, a relative viability ([1]; first compound 2 µM) of 0.491 and a relative viability ([2]; first compound 0.02 µM) of 0.47. For the same cell line, the relative viability ([2]; first compound 0.2 µM) was 0.375, the relative viability ([2]; first compound 0.6325 µM) was 0.365 and the relative viability ([2]; first compound 2 µM) was 0.365.

With NCI-H1792 the relative viability (Staurosporine + Olaparib; first compound 0.005 µM) was 0.147, the relative viability (Staurosporine + Olaparib; first compound 0.01581 µM) was 0.0705 and the relative viability (Staurosporine + Olaparib; first compound 0.05 µM) was 0.0822. For the same cell line, the relative viability (Staurosporine + Olaparib; first compound 0.1581 µM) was 0.097, the relative viability (Staurosporine + Olaparib; first compound 0.5 µM) was 0.0652 and the relative viability (Staurosporine + OSI-027; first compound 0.01581 µM) was 0.635. The relative viability (Staurosporine + OSI-027; first compound 0.05 µM) was 0.347, the relative viability (Staurosporine + OSI-027; first compound 0.1581 µM) was 0.282 and the relative viability (Staurosporine + OSI-027; first compound 0.5 µM) was 0.323. For the same cell line, the relative viability ([1]; first compound 0.02 µM) was 0.467, the relative viability ([1]; first compound 0.2 µM) was 0.54 and the relative viability ([1]; first compound 0.6325 µM) was 0.169. It also gave a relative viability ([1]; first compound 2 µM) of 0.175, a relative viability ([2]; first compound 0.02 µM) of 0.337 and a relative viability ([2]; first compound 0.2 µM) of 0.243. It also gave a relative viability ([2]; first compound 0.6325 µM) of 0.113 and a relative viability ([2]; first compound 2 µM) of 0.0763.

For NCI-H358, the relative viability (Staurosporine + Olaparib; first compound 0.005 µM) was 0.519, the relative viability (Staurosporine + Olaparib; first compound 0.01581 µM) was 0.403 and the relative viability (Staurosporine + Olaparib; first compound 0.05 µM) was 0.0954. The relative viability (Staurosporine + Olaparib; first compound 0.1581 µM) was 0.0798, the relative viability (Staurosporine + Olaparib; first compound 0.5 µM) was 0.058 and the relative viability (Staurosporine + OSI-027; first compound 0.005 µM) was 0.809. It also gave a relative viability (Staurosporine + OSI-027; first compound 0.01581 µM) of 0.157, a relative viability (Staurosporine + OSI-027; first compound 0.05 µM) of 0.0851 and a relative viability (Staurosporine + OSI-027; first compound 0.1581 µM) of 0.0615. For the same cell line, the relative viability (Staurosporine + OSI-027; first compound 0.5 µM) was 0.0427, the relative viability ([1]; first compound 0.02 µM) was 0.637 and the relative viability ([1]; first compound 0.2 µM) was 0.686. The relative viability ([1]; first compound 0.6325 µM) was 0.612, the relative viability ([1]; first compound 2 µM) was 0.39 and the relative viability ([2]; first compound 0.02 µM) was 0.337. It also gave a relative viability ([2]; first compound 0.2 µM) of 0.354, a relative viability ([2]; first compound 0.6325 µM) of 0.337 and a relative viability ([2]; first compound 2 µM) of 0.294.

Cell Line NCI-H1755 has a relative viability (Staurosporine + Olaparib; first compound 0.005 µM) of 0.731, a relative viability (Staurosporine + Olaparib; first compound 0.01581 µM) of 0.421 and a relative viability (Staurosporine + Olaparib; first compound 0.05 µM) of 0.25. The relative viability (Staurosporine + Olaparib; first compound 0.1581 µM) was 0.236, the relative viability (Staurosporine + Olaparib; first compound 0.5 µM) was 0.234 and the relative viability (Staurosporine + OSI-027; first compound 0.005 µM) was 0.344. It also gave a relative viability (Staurosporine + OSI-027; first compound 0.01581 µM) of 0.268, a relative viability (Staurosporine + OSI-027; first compound 0.05 µM) of 0.209 and a relative viability (Staurosporine + OSI-027; first compound 0.1581 µM) of 0.189. It also gave a relative viability (Staurosporine + OSI-027; first compound 0.5 µM) of 0.18, a relative viability ([1]; first compound 0.02 µM) of 0.817 and a relative viability ([1]; first compound 0.2 µM) of 0.665. For the same cell line, the relative viability ([1]; first compound 0.6325 µM) was 0.374, the relative viability ([1]; first compound 2 µM) was 0.319 and the relative viability ([2]; first compound 0.02 µM) was 0.453. It also gave a relative viability ([2]; first compound 0.2 µM) of 0.5, a relative viability ([2]; first compound 0.6325 µM) of 0.301 and a relative viability ([2]; first compound 2 µM) of 0.184.

In the case of EPLC-272H, the relative viability (Staurosporine + Olaparib; first compound 0.005 µM) is reported as 0.41, the relative viability (Staurosporine + Olaparib; first compound 0.01581 µM) is reported as 0.148 and the relative viability (Staurosporine + Olaparib; first compound 0.05 µM) is reported as 0.139. It also gave a relative viability (Staurosporine + Olaparib; first compound 0.1581 µM) of 0.0846, a relative viability (Staurosporine + Olaparib; first compound 0.5 µM) of 0.0704 and a relative viability (Staurosporine + OSI-027; first compound 0.005 µM) of 0.29. It also gave a relative viability (Staurosporine + OSI-027; first compound 0.01581 µM) of 0.142, a relative viability (Staurosporine + OSI-027; first compound 0.05 µM) of 0.163 and a relative viability (Staurosporine + OSI-027; first compound 0.1581 µM) of 0.0783. For the same cell line, the relative viability (Staurosporine + OSI-027; first compound 0.5 µM) was 0.0871, the relative viability ([1]; first compound 0.02 µM) was 0.737 and the relative viability ([1]; first compound 0.2 µM) was 0.67. It also gave a relative viability ([1]; first compound 0.6325 µM) of 0.32, a relative viability ([1]; first compound 2 µM) of 0.21 and a relative viability ([2]; first compound 0.02 µM) of 0.337. It also gave a relative viability ([2]; first compound 0.2 µM) of 0.294, a relative viability ([2]; first compound 0.6325 µM) of 0.199 and a relative viability ([2]; first compound 2 µM) of 0.221.

NCI-H2228 gave a relative viability (Staurosporine + Olaparib; first compound 0.005 µM) of 0.375, a relative viability (Staurosporine + Olaparib; first compound 0.01581 µM) of 0.211 and a relative viability (Staurosporine + Olaparib; first compound 0.05 µM) of 0.18. The relative viability (Staurosporine + Olaparib; first compound 0.1581 µM) was 0.0961, the relative viability (Staurosporine + Olaparib; first compound 0.5 µM) was 0.0588 and the relative viability (Staurosporine + OSI-027; first compound 0.005 µM) was 0.689. For the same cell line, the relative viability (Staurosporine + OSI-027; first compound 0.01581 µM) was 0.273, the relative viability (Staurosporine + OSI-027; first compound 0.05 µM) was 0.188 and the relative viability (Staurosporine + OSI-027; first compound 0.1581 µM) was 0.0855. For the same cell line, the relative viability (Staurosporine + OSI-027; first compound 0.5 µM) was 0.0902, the relative viability ([1]; first compound 0.02 µM) was 0.998 and the relative viability ([1]; first compound 0.2 µM) was 0.671. For the same cell line, the relative viability ([1]; first compound 0.6325 µM) was 0.44, the relative viability ([1]; first compound 2 µM) was 0.33 and the relative viability ([2]; first compound 0.02 µM) was 0.378. For the same cell line, the relative viability ([2]; first compound 0.2 µM) was 0.309, the relative viability ([2]; first compound 0.6325 µM) was 0.205 and the relative viability ([2]; first compound 2 µM) was 0.201.
